The results in this text go back to patent US20240109917A1 (ACTELION PHARMACEUTICALS LTD, priority 2020, published 2024).

pIC50: −log10 of the molar value.

The experiment has as its target His6-TEV-PDGFRβ (557-1016) (Homo sapiens (Human), UniProt P09619). The experiment can be described thus: PDGFRβ HTRF Assay. Particulars: read-out: PDGFR HTRF IC50. It counts as biochemical. An outline of the steps: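 Human PDGFRβ (557-1016) pre-incubated with compound for 30 min at RT in pH 7.5 HEPES/MgCl2/EGTA/Brij-35/DTT buffer. Reaction started with ATP and TK-biotin peptide, run 3 h at RT, then quenched with EDTA-containing Eu-cryptate antibody/streptavidin-XL665. HTRF 665/620 nm ratio read after 60 min; percent inhibition relative to DMSO and 10 μM imatinib controls.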
(TR-FRET usually uses a lanthanide donor and a delayed reading to cut background.)

Chain of His6-TEV-PDGFRβ (557-1016) (P09619 557-1016): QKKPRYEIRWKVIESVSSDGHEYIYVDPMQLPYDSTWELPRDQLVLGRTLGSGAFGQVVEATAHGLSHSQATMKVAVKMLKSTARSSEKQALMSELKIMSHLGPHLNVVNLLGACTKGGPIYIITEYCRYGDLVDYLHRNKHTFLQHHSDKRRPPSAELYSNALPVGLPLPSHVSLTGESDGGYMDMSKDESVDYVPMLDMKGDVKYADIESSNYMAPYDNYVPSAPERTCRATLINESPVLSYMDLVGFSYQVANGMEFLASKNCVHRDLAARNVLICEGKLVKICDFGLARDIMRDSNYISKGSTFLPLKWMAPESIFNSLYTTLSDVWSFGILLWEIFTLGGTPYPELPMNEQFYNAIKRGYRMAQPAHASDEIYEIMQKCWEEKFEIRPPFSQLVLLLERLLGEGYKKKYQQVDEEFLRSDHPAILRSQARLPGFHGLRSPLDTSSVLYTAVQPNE

Consider `Cc1cc(C(=O)NCCN2CCCC(O)C2)sc1NC(=O)c1cnn2cc(-c3cnn(C)c3)sc12` (stereo not shown) [Example 200, N-(5-((2-(3-hydroxypiperidin-1-yl)ethyl)carbamoyl)-3-methylthiophen-2-yl)-2-(1-methyl-1H-pyrazol-4-yl)pyrazolo[5,1-b]thiazole-7-carboxamide], for which the pIC50 is 7.31. The value for `Cc1cc(C(=O)NCCCN2CCCC2(C)C)sc1NC(=O)c1cnn2cc(-c3cnn(C)c3)sc12` [Example 201, N-(5-((3-(2,2-dimethylpyrrolidin-1-yl)propyl)carbamoyl)-3-methylthiophen-2-yl)-2-(1-methyl-1H-pyrazol-4-yl)pyrazolo[5,1-b]thiazole-7-carboxamide] was 7.23.

For `Cc1cc(C(=O)NCC(C)(C)N2CCCC2)sc1NC(=O)c1cnn2cc(-c3cnn(C)c3)sc12` [Example 202, 2-(1-methyl-1H-pyrazol-4-yl)-N-(3-methyl-5-((2-methyl-2-(pyrrolidin-1-yl)propyl)carbamoyl)thiophen-2-yl)pyrazolo[5,1-b]thiazole-7-carboxamide], the negative-log IC50 (pIC50) was 5.97. For `Cc1cc(C(=O)NCCN2CCC3(CCC3)CC2)sc1NC(=O)c1cnn2cc(-c3cnn(C)c3)sc12` [Example 203, N-(5-((2-(7-azaspiro[3.5]nonan-7-yl)ethyl)carbamoyl)-3-methylthiophen-2-yl)-2-(1-methyl-1H-pyrazol-4-yl)pyrazolo[5,1-b]thiazole-7-carboxamide], the pIC50 was 7.60. As for `Cc1cc(C(=O)NCCN2CCc3ccccc3C2)sc1NC(=O)c1cnn2cc(-c3cnn(C)c3)sc12` [Example 204, N-(5-((2-(3,4-dihydroisoquinolin-2 (1H)-yl)ethyl)carbamoyl)-3-methylthiophen-2-yl)-2-(1-methyl-1H-pyrazol-4-yl)pyrazolo[5,1-b]thiazole-7-carboxamide], the pIC50 is 7.72. For `CCc1cc(C(=O)NCCN2CCCC23CCC3)sc1NC(=O)c1cnn2cc(-c3cnn(C)c3)sc12` [Example 205, N-(5-((2-(5-azaspiro[3.4]octan-5-yl)ethyl)carbamoyl)-3-ethylthiophen-2-yl)-2-(1-methyl-1H-pyrazol-4-yl)pyrazolo[5,1-b]thiazole-7-carboxamide], the pIC50 is 7.40. To `Cn1cc(-c2cn3ncc(C(=O)Nc4sc(C(=O)NCCN5CCCC56CCC6)cc4C#N)c3s2)cn1` [Example 206, N-(5-((2-(5-azaspiro[3.4]octan-5-yl)ethyl)carbamoyl)-3-cyanothiophen-2-yl)-2-(1-methyl-1H-pyrazol-4-yl)pyrazolo[5,1-b]thiazole-7-carboxamide] belongs 5.45; to `Cn1cc(-c2cn3ncc(C(=O)Nc4cc(C(=O)NCCN5CCCC5(C)C)ccc4F)c3s2)cn1` [Example 207, N-(5-((2-(2,2-dimethylpyrrolidin-1-yl)ethyl)carbamoyl)-2-fluorophenyl)-2-(1-methyl-1H-pyrazol-4-yl)pyrazolo[5,1-b]thiazole-7-carboxamide], 9.52. Regarding `Cc1ncc(C(=O)NCCN2C[C@H]3CC[C@@H]2C3)cc1NC(=O)c1cnn2cc(-c3cnn(C)c3C)sc12` [Example 208, N-(5-((2-((1R,4S)-2-azabicyclo[2.2.1]heptan-2-yl)ethyl)carbamoyl)-2-methylpyridin-3-yl)-2-(1,5-dimethyl-1H-pyrazol-4-yl)pyrazolo[5,1-b]thiazole-7-carboxamide], the negative logarithm of the IC50 (pIC50) was 9.52. `Cc1ncc(C(=O)NCCN2CCCC23CCC3)cc1NC(=O)c1cnn2cc(-c3cnn(C)c3C)sc12` [Example 209, N-(5-((2-(5-azaspiro[3.4]octan-5-yl)ethyl)carbamoyl)-2-methyl-pyridin-3-yl)-2-(1,5-dimethyl-1H-pyrazol-4-yl)pyrazolo[5,1-b]thiazole-7-carboxamide]: the pIC50 was 9.52.

As to `Cc1ncc(C(=O)NCCN2CC3CCC2C3)cc1NC(=O)c1cnn2cc(-c3cnn(C)c3C)sc12` (stereo not shown) [Example 210, N-(5-((2-(2-azabicyclo[2.2.1]heptan-2-yl)ethyl)carbamoyl)-2-methylpyridin-3-yl)-2-(1,5-dimethyl-1H-pyrazol-4-yl)pyrazolo[5,1-b]thiazole-7-carboxamide], the negative logarithm of the IC50 (pIC50) is 9.52. With `Cc1ncc(C(=O)NCCN2C[C@H]3CC[C@@H]2C3)cc1NC(=O)c1cnn2cc(-c3cn(C)nc3C)sc12` [Example 211, N-(5-((2-((1R,4S)-2-azabicyclo[2.2.1]heptan-2-yl)ethyl)carbamoyl)-2-methylpyridin-3-yl)-2-(1,3-dimethyl-1H-pyrazol-4-yl)pyrazolo[5,1-b]thiazole-7-carboxamide], the pIC50 was 9.52. On to `Cc1ncc(C(=O)NCCN2CC3CCC2C3)cc1NC(=O)c1cnn2cc(-c3cn(C)nc3C)sc12` (stereo not shown) [Example 212, N-(5-((2-(2-azabicyclo[2.2.1]heptan-2-yl)ethyl)carbamoyl)-2-methylpyridin-3-yl)-2-(1,3-dimethyl-1H-pyrazol-4-yl)pyrazolo[5,1-b]thiazole-7-carboxamide], for which the negative logarithm of the IC50 (pIC50) was 9.52. For the compound `Cc1ncc(C(=O)NCCN2CCCC23CCC3)cc1NC(=O)c1cnn2cc(-c3cn(C)nc3C)sc12` [Example 213, N-(5-((2-(5-azaspiro[3.4]octan-5-yl)ethyl)carbamoyl)-2-methylpyridin-3-yl)-2-(1,3-dimethyl-1H-pyrazol-4-yl)pyrazolo[5,1-b]thiazole-7-carboxamide], the pIC50 was 9.52. Take `Cc1ncc(C(=O)NCCN2CCCC23CCC3)cc1NC(=O)c1cnn2cc(-c3c(C)nn(C)c3C)sc12` [Example 214, N-(5-((2-(5-azaspiro[3.4]octan-5-yl)ethyl)carbamoyl)-2-methylpyridin-3-yl)-2-(1,3,5-trimethyl-1H-pyrazol-4-yl)pyrazolo[5,1-b]thiazole-7-carboxamide]: the pIC50 was 9.52.

Take `Cc1ncc(NC(=O)CCCN2CCC23CCC3)cc1NC(=O)c1cnn2cc(-c3cnn(C)c3)sc12` [Example 215, N-(5-(4-(1-azaspiro[3.3]heptan-1-yl)butanamido)-2-methylpyridin-3-yl)-2-(1-methyl-1H-pyrazol-4-yl)pyrazolo[5,1-b]thiazole-7-carboxamide]: the pIC50 is 9.30. To `COCCn1cc(-c2cn3ncc(C(=O)Nc4cc(NC(=O)CCCN5CCC[C@@H]5C)cnc4C)c3s2)cn1` [Example 216, (S)-2-(1-(2-methoxyethyl)-1H-pyrazol-4-yl)-N-(2-methyl-5-(4-(2-methylpyrrolidin-1-yl)butanamido)pyridin-3-yl)pyrazolo[5,1-b]thiazole-7-carboxamide] belongs 8.82. The value for `Cc1ncc(C(=O)NCCN2CCCC2(C)C)cc1NC(=O)c1cnn2cc(-n3ncc4cccnc43)sc12` [Example 217, N-(5-((2-(2,2-dimethylpyrrolidin-1-yl)ethyl)carbamoyl)-2-methylpyridin-3-yl)-2-(1H-pyrazolo[3,4-b]pyridin-1-yl)pyrazolo[5,1-b]thiazole-7-carboxamide] was 9.40; that for `Cc1ncc(C(=O)NCCN2CCCC2)cc1NC(=O)c1cnn2cc(-c3cn(C)nc3C)sc12` [Example 218, 2-(1,3-Dimethyl-1H-pyrazol-4-yl)-N-(2-methyl-5-((2-(pyrrolidin-1-yl)ethyl)carbamoyl)pyridin-3-yl)pyrazolo[5,1-b]thiazole-7-carboxamide] was 9.52.

Broadly, the pIC50 is the IC50 on a negative log10 scale, so that one unit is a factor of ten.
